From patent US6432883B1, “Methods of treating plants with glycolic acid” (Emerald BioAgriculture Corporation, priority 2000, dated 2002)
Marks after values point to notes of the source that are not given here.

Legend:
Format in all cases: in vivo
Sclerotinia minor = assay: Excised lettuce leaves, post-harvest pathogen stress: disease index; conditions: for Disease Index [(severity)(% incidence)/100]: 3 days post-inoculation
Text: Waldmann's MTO dark green Grand Rapids leaf lettuce seed, lot# 15529, was purchased from Johnny's Selected Seeds, Albion, Me., and broadcast seeded into 10×20×2′ flats. Circular steel-blue blotter papers (Anchor Paper Co, St. Paul, Minn.) were fitted into disposable petri dishes. Treatments consisted of non-inoculated and inoculated groups of non-treated (NTC), water and 0.01% surfactant-blank (SB) controls and 10, 25, 75,150, 500 and 1000 ppm of glycolic acid.
(§1) Blotters were saturated with 4.5 ml sterile tap water. Individual leaves (20) were excised and placed into a treatment solution for 5 seconds or left non-treated. Excess fluid was removed from the leaf surface. These leaves were then placed singly, 1 leaf per dish and adaxial side up, on the moist blotters. Dish lids were replaced and dishes stacked, bagged and returned to the petri dish box for 24 hours dark storage at room temperature (68-72° F.).
Inoculum (Sclerotinia minor hyphal fragments and sclerotia) was grown on potato dextrose agar (PDA) plates until the sclerotia were black and hard. These were blended into a paste with non-inoculated PDA and sterile tap water. A small spot of inoculum paste containing hyphal fragments and 2-3 sclerotia was dotted onto the center of 16 of the 20 leaf pieces per treatment stack 24 hours after test substance application.
Due to the nature of Sclerotinia as a pathogen, disease is generally an all-or-nothing phenomenon. Therefore, it is necessary to assess both disease incidence and disease severity to give an accurate representation of the disease progression. Disease severity assessment was made at 3 days±2 hours post-inoculation by measuring the radius of colonized tissue in mm. Disease incidence was assessed as the presence or absence of infection (number of diseased leaves/ number of leaves tested) 100=% incidence. Multiplying the average severity by the % incidence and dividing by 100 then combined both evaluations into one assessment number and created a disease index value. The results in Table 5 below show this value for each treatment.

[1] = test system: Erysiphe graminis/Ooidium; assay: Wheat pathogen stress: disease index on leaves and heads; conditions: for Disease Index Heads / Disease Index Leaves: wheat, (1-7 severity rating)(% incidence)/100
Protocol: Kulm wheat seed, lot CR, was purchased from Albert Lea Seed House, Albert Lea, Minn. and grown 100 plants per 1 gallon pot, 3 pots per experimental unit and 1 experimental unit per each of 6 replications. The plants were spray-treated first at late-tillering to jointing and again at “in boot” to anthesis with 8 ml solution per pot. Aerial application of the pathogen stress (Erysiphe graminis/Ooidium conidia cultured on other Kulm wheat plants infected by incoming natural inoculum) was made to the plants at 14 days following the first treatment application, in addition to other naturally occurring inoculum.
Treatments consisted of non-inoculated and inoculated groups of non-treated (NTC), water and 0.05% surfactant-blank (SB) controls and 5, 25, and 50 ppm of glycolic acid.
Disease assessment was made 3 days prior to head harvesting using a 1-7 based severity scale and % incidence. A disease index [(1-7 based severity rating)(% incidence)/100] was created to better describe the compound effect. The results in Table 3 below show the data for each treatment and the rating scale definitions.

Bottytis cinerea = assay: Excised lettuce leaves, post-harvest pathogen stress: radius of colonized tissue; conditions: for Average Disease Progression: radius of colonized tissue 3 days post-inoculation
Protocol: Waldmann's MTO dark green Grand Rapids leaf lettuce seed, lot# 15529, was purchased from Johnny's Selected Seeds, Albion, Me., and grown 8 plants per 1 gallon pot. Circular steel-blue blotter papers (Anchor Paper Co, St. Paul, Minn.) were steam autoclaved and fitted into disposable petri dishes. […]
as §1, with “for 5-10” for “for 5”, “24 hour” for “24 hours”, “temperature (65-68°” for “temperature (68-72°”
Inoculum (Bottytis cinerea) was grown on potato dextrose agar (PDA) plates until dense conidia production was present. These were blended into a paste with non-inoculated PDA and sterile tap water. Inoculum concentration was determined by dilution plating to be 1960 cfu/ml.
A small spot of inoculum paste was dotted onto the center of 16 of the 20 leaf pieces per treatment stack 24 hours after test substance application.
Disease progression assessment was made at 3 days±2 hours post-inoculation by measuring the radius of colonized tissue in mm.

Structure (SMILES): O=C(O)CO [glycolic acid]
- Disease Index [(severity)(% incidence)/100] (Sclerotinia minor; 10 ppm leaf dip): 1.2
- disease severity versus control lettuce (Sclerotinia minor; 25 ppm and 75 ppm, lettuce leaves, α=0.05): statistically significant (α=0.05) decrease
- Disease Index [(severity)(% incidence)/100] (Sclerotinia minor; 25 ppm leaf dip): 0.1*
- Disease Index [(severity)(% incidence)/100] (Sclerotinia minor; 75 ppm leaf dip): 0.5*
- Disease Index [(severity)(% incidence)/100] (Sclerotinia minor; 150 ppm leaf dip): 1.3
- Disease Index [(severity)(% incidence)/100] (Sclerotinia minor; 500 ppm leaf dip): 1.1
- Disease Index [(severity)(% incidence)/100] (Sclerotinia minor; 1000 ppm leaf dip): 2.0
- disease severity observed in wheat heads versus control wheat ([1]; 5 ppm and 25 ppm, α=0.05): statistically significant (α=0.05) decrease
- Disease Index Heads ([1]; 5 ppm spray): 2.5*
- Disease Index Leaves ([1]; 5 ppm spray): 7.6*
- Disease Index Heads ([1]; 25 ppm spray): 13.4*
- Disease Index Leaves ([1]; 25 ppm spray): 7.0*
- Disease Index Heads ([1]; 50 ppm spray): 18.6*
- Disease Index Leaves ([1]; 50 ppm spray): 36.9
- disease severity in wheat leaves versus control wheat ([1]; all glycolic acid treated wheat, α=0.05): statistically significant (α=0.05) decrease
- Average Disease Progression (Bottytis cinerea; 10 ppm leaf dip): 4.0* mm
- disease severity versus control lettuce (Bottytis cinerea; 10 ppm, lettuce leaves, α=0.05): statistically significant (α=0.05) decrease
- Average Disease Progression (Bottytis cinerea; 25 ppm leaf dip): 9.8 mm
- Average Disease Progression (Bottytis cinerea; 75 ppm leaf dip): 9.4 mm
- Average Disease Progression (Bottytis cinerea; 150 ppm leaf dip): 13.6 mm
- Average Disease Progression (Bottytis cinerea; 500 ppm leaf dip): 12.1 mm
- Average Disease Progression (Bottytis cinerea; 1000 ppm leaf dip): 11.6 mm
